Results taken from ChEMBL document CHEMBL4024706 (Eur J Med Chem, 2017).
Calls of active or inactive are those of the source. The rule behind the calls is not given here.

Assays:
Ramos = assay: Growth inhibition of human Ramos cells; format: functional
U-937 = assay: Growth inhibition of human U937 cells; format: functional
U2932 [1] = assay: Cell cycle arrest in human U2932 cells assessed as increase in accumulation at G0/G1 phase at 10 uM after 48 hrs by propidium iodide/RNase staining based flow cytometric method; format: functional
SKM-1 = assay: Growth inhibition of human SKM1 cells; format: functional
Pfeiffer [2] = assay: Cell cycle arrest in human Pfeiffer cells assessed as increase in accumulation at G0/G1 phase at 10 uM after 48 hrs by propidium iodide/RNase staining based flow cytometric method; format: functional
U2932 [3] = assay: Growth inhibition of human U2932 cells; format: functional
SU-DHL-2 = assay: Growth inhibition of human SU-DHL-2 cells; format: functional
PBMC = assay: Cytotoxicity against PBMC (unknwon origin); format: cell-based
[4] = Growth inhibition of human M07e cells; format: functional
Pfeiffer [5] = assay: Growth inhibition of human Pfeiffer cells; format: functional
OCI-AML-3 = assay: Growth inhibition of human OCI-AML3 cells; format: functional
NB-4 = assay: Growth inhibition of human NB4 cells; format: functional
MV4-11 = assay: Growth inhibition of human MV411 cells; format: functional
[6] = target: Tyrosine-protein kinase BTK (Homo sapiens, UniProt Q06187); assay: Inhibition of full length recombinant human N-terminal His tagged […] expressed in baculovirus infected Sf9 insect cells using poly (Glu,Tyr)4:1 as substrate pretreated for 60 mins followed by substrate addition after 1 hr by ADP-Glo luminescence assay
[7] = target: T1, Tyrosine-protein kinase JAK3 (Homo sapiens, UniProt P52333); assay: Inhibition of recombinant human N-terminal GST-tagged JAK3 (781 to end residues) expressed in baculovirus infected Sf9 insect cells using poly (Glu,Tyr)4:1 as substrate pretreated for 60 mins followed by substrate addition after 1 hr by ADP-Glo luminescence assay
T1 sequence (P52333 whole entry): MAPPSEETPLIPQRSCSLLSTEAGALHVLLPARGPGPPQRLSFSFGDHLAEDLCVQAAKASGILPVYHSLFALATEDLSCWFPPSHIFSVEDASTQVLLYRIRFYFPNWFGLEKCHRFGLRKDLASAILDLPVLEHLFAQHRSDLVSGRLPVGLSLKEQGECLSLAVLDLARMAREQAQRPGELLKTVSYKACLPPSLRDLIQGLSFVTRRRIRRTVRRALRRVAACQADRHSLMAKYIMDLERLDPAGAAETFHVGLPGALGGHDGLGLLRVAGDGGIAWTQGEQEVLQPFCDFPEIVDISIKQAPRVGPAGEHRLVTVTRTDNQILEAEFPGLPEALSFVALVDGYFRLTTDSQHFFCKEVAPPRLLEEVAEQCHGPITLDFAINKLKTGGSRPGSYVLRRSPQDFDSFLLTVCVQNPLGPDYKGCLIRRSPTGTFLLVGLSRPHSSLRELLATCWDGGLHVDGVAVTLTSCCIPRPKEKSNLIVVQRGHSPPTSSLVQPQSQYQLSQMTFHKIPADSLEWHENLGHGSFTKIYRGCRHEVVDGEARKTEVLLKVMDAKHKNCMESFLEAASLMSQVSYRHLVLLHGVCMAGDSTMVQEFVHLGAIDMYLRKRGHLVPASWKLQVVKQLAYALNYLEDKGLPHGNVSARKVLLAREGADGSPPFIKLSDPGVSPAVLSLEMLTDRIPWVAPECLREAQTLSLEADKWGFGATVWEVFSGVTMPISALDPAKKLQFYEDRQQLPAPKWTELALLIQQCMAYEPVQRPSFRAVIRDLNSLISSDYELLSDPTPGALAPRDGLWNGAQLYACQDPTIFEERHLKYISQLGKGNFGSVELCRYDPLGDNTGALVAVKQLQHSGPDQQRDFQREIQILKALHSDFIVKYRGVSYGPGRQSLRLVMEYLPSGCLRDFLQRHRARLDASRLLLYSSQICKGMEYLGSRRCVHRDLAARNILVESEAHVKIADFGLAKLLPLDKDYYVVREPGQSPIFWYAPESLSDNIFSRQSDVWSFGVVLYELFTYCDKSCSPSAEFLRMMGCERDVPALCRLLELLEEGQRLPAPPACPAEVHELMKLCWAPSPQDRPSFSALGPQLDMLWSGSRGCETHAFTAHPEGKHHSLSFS

[8] = target: Epidermal growth factor receptor (Homo sapiens, UniProt P00533); assay: Inhibition of recombinant human N-terminal GST-tagged wild-type EGFR (695 to end residues) expressed in baculovirus infected Sf9 insect cells using poly (Glu,Tyr)4:1 as substrate pretreated for 60 mins followed by substrate addition after 1 hr by ADP-Glo luminescence assay
Sequence of Epidermal growth factor receptor (P00533 whole entry): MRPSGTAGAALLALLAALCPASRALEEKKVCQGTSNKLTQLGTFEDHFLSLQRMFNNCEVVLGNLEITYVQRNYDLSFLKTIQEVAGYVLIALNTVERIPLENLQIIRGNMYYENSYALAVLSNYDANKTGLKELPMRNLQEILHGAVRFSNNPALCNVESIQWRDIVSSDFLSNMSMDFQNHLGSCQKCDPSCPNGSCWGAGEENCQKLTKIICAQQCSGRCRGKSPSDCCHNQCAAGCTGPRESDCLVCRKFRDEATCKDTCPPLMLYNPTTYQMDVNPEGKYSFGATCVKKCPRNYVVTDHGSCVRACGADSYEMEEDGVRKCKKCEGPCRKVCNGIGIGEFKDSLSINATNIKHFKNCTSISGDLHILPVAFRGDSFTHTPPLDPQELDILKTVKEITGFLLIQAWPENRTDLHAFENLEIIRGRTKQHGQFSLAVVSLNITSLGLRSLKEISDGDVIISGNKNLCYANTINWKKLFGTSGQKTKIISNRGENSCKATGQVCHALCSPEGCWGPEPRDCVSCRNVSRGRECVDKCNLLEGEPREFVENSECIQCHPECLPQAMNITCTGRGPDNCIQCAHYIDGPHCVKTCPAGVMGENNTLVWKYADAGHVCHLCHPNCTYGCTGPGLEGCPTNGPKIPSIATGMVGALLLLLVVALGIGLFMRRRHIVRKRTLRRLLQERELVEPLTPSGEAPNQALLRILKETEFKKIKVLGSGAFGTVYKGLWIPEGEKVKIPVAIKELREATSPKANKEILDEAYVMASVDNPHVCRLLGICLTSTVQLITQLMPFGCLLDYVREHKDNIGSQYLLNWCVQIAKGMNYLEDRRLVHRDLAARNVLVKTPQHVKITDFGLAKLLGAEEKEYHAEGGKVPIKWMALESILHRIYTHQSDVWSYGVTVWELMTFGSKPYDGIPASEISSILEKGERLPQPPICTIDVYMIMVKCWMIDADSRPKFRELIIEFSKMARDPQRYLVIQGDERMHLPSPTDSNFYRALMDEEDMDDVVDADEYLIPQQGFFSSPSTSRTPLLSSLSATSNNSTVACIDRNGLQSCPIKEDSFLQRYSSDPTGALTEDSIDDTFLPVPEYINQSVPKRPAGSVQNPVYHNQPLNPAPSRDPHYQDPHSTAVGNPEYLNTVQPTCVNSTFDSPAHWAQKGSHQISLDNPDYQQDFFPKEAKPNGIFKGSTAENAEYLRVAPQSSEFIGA

Sequence of Tyrosine-protein kinase BTK (Q06187 whole entry): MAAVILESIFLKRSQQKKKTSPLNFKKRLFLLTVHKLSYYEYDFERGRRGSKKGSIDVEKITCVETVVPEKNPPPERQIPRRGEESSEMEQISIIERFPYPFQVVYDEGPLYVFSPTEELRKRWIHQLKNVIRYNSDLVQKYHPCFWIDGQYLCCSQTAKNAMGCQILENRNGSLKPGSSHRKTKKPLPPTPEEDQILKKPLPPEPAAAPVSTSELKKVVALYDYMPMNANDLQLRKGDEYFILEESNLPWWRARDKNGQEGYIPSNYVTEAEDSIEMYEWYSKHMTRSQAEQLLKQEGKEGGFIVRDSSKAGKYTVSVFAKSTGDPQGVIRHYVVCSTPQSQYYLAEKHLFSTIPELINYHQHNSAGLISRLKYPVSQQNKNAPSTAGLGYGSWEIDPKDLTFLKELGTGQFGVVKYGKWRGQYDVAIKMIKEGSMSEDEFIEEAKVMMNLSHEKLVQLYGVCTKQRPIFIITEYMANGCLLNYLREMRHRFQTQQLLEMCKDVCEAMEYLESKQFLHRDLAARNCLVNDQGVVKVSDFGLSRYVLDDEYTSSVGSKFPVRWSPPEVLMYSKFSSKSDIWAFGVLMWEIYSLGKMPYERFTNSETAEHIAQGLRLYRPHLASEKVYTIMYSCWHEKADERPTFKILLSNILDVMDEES

Structure (SMILES) | IC50 [6] | also measured
C=CC(=O)N1CCC[C@@H](n2nc(-c3ccc(Oc4ccccc4)cc3)c3c(N)ncnc32)C1 [IBRUTINIB] |  | GI50 (Ramos): 3400 nM; GI50 (U-937): 2900 nM; Activity (U2932 [1]): Active; GI50 (SKM-1): 3600 nM; Activity (Pfeiffer [2]): Active; GI50 (U2932 [3]): 4400 nM; GI50 (SU-DHL-2): 640 nM; Activity (PBMC): Non-Toxic; GI50 [4]: 590 nM; GI50 (Pfeiffer [5]): 1600 nM; GI50 (OCI-AML-3): 9200 nM; GI50 (NB-4): 3000 nM; GI50 (MV4-11): 250 nM
C=CC(=O)Nc1cc(Nc2cc(-c3cccc(NC(=O)c4ccc(C(C)(C)C)cc4)c3C)cn(C)c2=O)ccc1C(=O)N1CCN(C)CC1 | 127 nM | 
C=CC(=O)NC1CCCN(c2cc(-c3cccc(NC(=O)c4ccc(N(C)C)cc4)c3C)cn(C)c2=O)C1 (stereo unspecified) | > 10000 nM | 
C=CC(=O)N1CCCC(Nc2cc(-c3cccc(NC(=O)c4ccc(N(C)C)cc4)c3C)cn(C)c2=O)C1 (stereo unspecified) | > 10000 nM | 
C=CC(=O)Nc1cc(Nc2cc(-c3cccc(NC(=O)c4ccc(C(C)(C)C)cc4)c3C)cn(C)c2=O)ccc1C(=O)NC1CC1 | 41 nM | 
C=CC(=O)Nc1cc(Nc2cc(-c3cccc(NC(=O)c4ccc(C(F)(F)F)cc4)c3C)cn(C)c2=O)ccc1C(=O)N1CCOCC1 | 76 nM | 
C=CC(=O)Nc1cc(Nc2cc(-c3cccc(NC(=O)c4ccc(C(C)(C)C)cc4)c3C)cn(C)c2=O)ccc1C(=O)N(C)C | 34 nM | 
C=CC(=O)Nc1cc(Nc2cc(-c3cccc(NC(=O)c4cc(OC)c(OC)c(OC)c4)c3C)cn(C)c2=O)ccc1C(=O)N1CCOCC1 | 1430 nM | 
C=CC(=O)Nc1cc(Nc2cc(-c3cccc(NC(=O)c4ccc5c(c4)OCCO5)c3C)cn(C)c2=O)ccc1C(=O)N1CCOCC1 | 89 nM | 
C=CC(=O)Nc1cccc(Nc2nc(Nc3ccc(Oc4ccnc(C(=O)NC)c4)cc3)ncc2F)c1 |  | IC50 [7]: 1530 nM
C=CC(=O)Nc1cc(Nc2cc(-c3cccc(NC(=O)c4ccc(OC)cc4)c3C)cn(C)c2=O)ccc1C(=O)N1CCOCC1 | 2610 nM | 
C=CC(=O)Nc1cc(Nc2cc(-c3cccc(NC(=O)c4ccc(N(C)C)cc4)c3C)cn(C)c2=O)ccc1C(=O)N1CCC(O)CC1 | 187 nM | 
C=CC(=O)Nc1cc(Nc2cc(-c3cccc(NC(=O)c4cccc(OC)c4)c3C)cn(C)c2=O)ccc1C(=O)N1CCOCC1 | 1190 nM | 
C=CC(=O)Nc1cccc(Nc2ncc(NC(=O)c3cc(NC(=O)c4cccc(C(F)(F)F)c4)ccc3C)cn2)c1 |  | IC50 [8]: 72 nM; IC50 [7]: 1700 nM
C=CC(=O)Nc1cc(Nc2cc(-c3cccc(NC(=O)c4ccc(C(C)(C)C)cc4)c3C)cn(C)c2=O)ccc1C | 365 nM | 
C=CC(=O)Nc1cc(Nc2cc(-c3cccc(NC(=O)c4ccc5c(c4)OCO5)c3C)cn(C)c2=O)ccc1C(=O)N1CCOCC1 | 282 nM | 
C=CC(=O)Nc1cc(Nc2cc(-c3cccc(NC(=O)c4ccc(C)c(C(F)(F)F)c4)c3C)cn(C)c2=O)ccc1C(=O)N1CCOCC1 | 1260 nM | 
C=CC(=O)Nc1cc(Nc2cc(-c3cccc(NC(=O)c4ccc(C(C)(C)C)cc4)c3C)cn(C)c2=O)ccc1C(=O)N1CCN(C(=O)OC(C)(C)C)CC1 | 68 nM | 
C=CC(=O)Nc1ccc(NC(=O)c2ccc(C(C)(C)C)cc2)c(C)c1-c1cc(Nc2ccc(C(=O)N3CCOCC3)cc2)c(=O)n(C)c1 | 1700 nM | 
C=CC(=O)Nc1cc(Nc2cc(-c3cccc(NC(=O)c4ccc(C(C)(C)C)cc4)c3C)cn(C)c2=O)ccc1C(=O)OC | 197 nM | 
C=CC(=O)Nc1cc(C(=O)N2CCOCC2)ccc1Nc1cc(-c2cccc(NC(=O)c3ccc(C(C)(C)C)cc3)c2C)cn(C)c1=O | 231 nM | 

Structure (SMILES) | IC50 [6] | also measured
C=CC(=O)Nc1cccc(Nc2nc(Nc3ccc(OCCOC)cc3)ncc2F)c1 [SPEBRUTINIB] |  | IC50 [8]: 442 nM; IC50 [7]: 1750 nM
C=CC(=O)NC1CCN(c2cc(-c3cccc(NC(=O)c4ccc(N(C)C)cc4)c3C)cn(C)c2=O)CC1 | > 10000 nM | 
C=CC(=O)Nc1cc(Nc2cc(-c3cccc(NC(=O)c4ccccc4)c3C)cn(C)c2=O)ccc1C(=O)N1CCOCC1 | 3740 nM | 
Cc1c(NC(=O)c2ccc(C(C)(C)C)cc2)cccc1-c1cc(Nc2ccc(C(=O)N3CCOCC3)c(NC(=O)CCl)c2)c(=O)n(C)c1 | 63 nM | 
C=CC(=O)Nc1cc(Nc2cc(-c3cccc(NC(=O)c4ccc(C(C)(C)C)cc4)c3C)cn(C)c2=O)ccc1C(=O)N1CCC(OC)CC1 | 65 nM | 
C=CC(=O)NC1CCCC(Nc2cc(-c3cccc(NC(=O)c4ccc(N(C)C)cc4)c3C)cn(C)c2=O)C1 (stereo unspecified) | 2950 nM | 
C=CC(=O)Nc1cc(Nc2cc(-c3cccc(NC(=O)c4ccc(N(C)C)cc4)c3C)cn(C)c2=O)ccc1C(=O)N(CCOCC)CCOCC | 3190 nM | 
C=CC(=O)N1CCC(Nc2cc(-c3cccc(NC(=O)c4ccc(N(C)C)cc4)c3C)cn(C)c2=O)CC1 | > 10000 nM | 
C=CC(=O)Nc1cc(Nc2cc(-c3cccc(NC(=O)c4ccc(C(C)C)cc4)c3C)cn(C)c2=O)ccc1C(=O)N1CCOCC1 | 32 nM | 
C=CC(=O)Nc1cc(Nc2cc(-c3cccc(NC(=O)c4ccc(N5CCCC5)cc4)c3C)cn(C)c2=O)ccc1C(=O)N1CCOCC1 | 86 nM | 
C=CC(=O)N1CCc2ccc(-n3c(=O)ccc4cnc5ccc(-c6cnn(C)c6)cc5c43)cc21 |  | IC50 [8]: 874 nM; IC50 [7]: 3340 nM
C=CC(=O)Nc1cc(Nc2cc(-c3cccc(NC(=O)c4ccc(N(C)C)cc4)c3C)cn(C)c2=O)ccc1C(=O)N1CCCC(O)C1 (stereo unspecified) | 244 nM | 
C=CC(=O)Nc1cccc(Nc2cc(-c3cccc(NC(=O)c4ccc(C(C)(C)C)cc4)c3C)cn(C)c2=O)c1 | > 10000 nM | 
C=CC(=O)Nc1cc(Nc2cc(-c3cccc(NC(=O)c4cccc(C(F)(F)F)c4)c3C)cn(C)c2=O)ccc1C(=O)N1CCOCC1 | > 10000 nM | 
C=CC(=O)Nc1cc(Nc2cc(-c3cccc(NC(=O)c4ccc(C(C)(C)C)cc4)c3C)cn(C)c2=O)ccc1C(=O)N1CCCC(O)C1 (stereo unspecified) | 21 nM | 
C=CC(=O)Nc1cc(Nc2cc(-c3cccc(NC(=O)c4ccc(CC)cc4)c3C)cn(C)c2=O)ccc1C(=O)N1CCOCC1 | 210 nM | 
C=CC(=O)Nc1cc(Nc2cc(-c3cccc(NC(=O)c4ccc5c(c4)CCCC5)c3C)cn(C)c2=O)ccc1C(=O)N1CCOCC1 | 57 nM | 
C=CC(=O)Nc1cc(Nc2cc(-c3cccc(NC(=O)c4ccc(N(C)C)cc4)c3C)cn(C)c2=O)ccc1C(=O)N1CCC(OC)CC1 | 596 nM | 
C=CC(=O)Nc1cc(Nc2cc(-c3cccc(NC(=O)c4ccc(C)cc4)c3C)cn(C)c2=O)ccc1C(=O)N1CCOCC1 | 114 nM | 
C=CC(=O)Nc1cc(Nc2cc(-c3cccc(NC(=O)c4ccc(N5CCOCC5)cc4)c3C)cn(C)c2=O)ccc1C(=O)N1CCOCC1 | 273 nM | 
